Source: patent publication US20060019907A1, “Guggulsterone: an inhibitor of nuclear factor - kappaB and IkappaBalpha kinase activation and uses thereof” (Research Development Foundation, priority 2004, published 2006)

Assays:
[1] = system: KBM-5 cells; test: Live and Dead (calcein AM) assay, TNF plus guggulsterone; format: cell-based, human; details: TNF in combination with guggulsterone, 24 hours
Text: Live and Dead Assay: To measure apoptosis, the Live and Dead assay (Molecular Probes) was used, which determines intracellular esterase activity and plasma membrane integrity. This assay employs calcein, a polyanionic dye, which is retained within the live cells and provides green fluorescence. It also employs the ethidium […] dye (red fluorescence), which can enter the cells only through damaged membranes and bind to nucleic acids but is excluded by the intact plasma membrane of live cells. Briefly, 1×10^5 cells are incubated with 10 μM guggulsterone for 24 h and then treated with 1 nM TNF for 16 hours at 37° C. Cells are stained with the Live and Dead reagent (5 μM ethidium homodimer, 5 μM calcein-AM) and then incubated at 37° C. for 30 min. Cells were analyzed under a fluorescence microscope (Labophot-2).

[2] = system: NF-κB; test: TNF-induced NF-κB activation by EMSA in A549, Jurkat and KBM-5 cells; format: cell-based, human; details: 50 μM, 4 hours, then 0.1 nM TNF 30 min
Protocol: (§1) NF-κB Activation: To determine NF-κB activation, EMSA was carried out as previously described (Chaturvedi et al., 2000). Briefly, nuclear extracts prepared from cells (2×10^6/ml) treated with TNF were incubated with ^32P-end-labeled 45-mer double-stranded NF-κB oligonucleotide (8 μg of protein with […] of DNA) from the human immunodeficiency virus long terminal repeat, 5′-[…] GGCGTGG-3′ (SEQ ID NO:1) (boldface indicates NF-κB binding sites), for 15 min at 37° C. The DNA-protein complex formed was separated from free oligonucleotide on 6.6% native polyacrylamide gels. A double-stranded mutated oligonucleotide, 5′-[…]-3′ (SEQ ID NO:2), was used to examine the specificity of binding of NF-κB to the DNA. The specificity of binding was also examined by competition with the unlabeled oligonucleotide. For supershift assays, nuclear extracts prepared from TNF-treated cells were incubated with antibodies against either the p50 or the p65 subunit of NF-κB for 30 min at room temperature before the complex was analyzed by EMSA. The dried gels were visualized, and radioactive bands were quantitated using a PHOSPHORIMAGER™ (Molecular Dynamics, Sunnyvale, Calif.) using IMAGEQUANT™ software.

[3] = system: STAT3; test: IL-6-inducible STAT3 phosphorylation in RPMI 8226 cells, Western blot; format: cell-based, human
Protocol: Western blot. For detection of STAT proteins, whole-cell extracts were prepared by lysing the guggulsterone-treated cells in lysis buffer (20 mM Tris, pH 7.4, 250 mM NaCl, 2 mM EDTA, pH 8.0, 0.1% Triton −X100, 0.01 mg/ml aprotinin, 0.005 mg/ml leupeptin, 0.4 mM PMSF, and 4 mM NaVO4). Lysates were then spun at 14,000 rpm for 10 min to remove insoluble material, and resolved on a 7.5% gel. After electrophoresis, the proteins were electrotransferred to a nitrocellulose membrane, blocked with 5% nonfat milk, and probed with anti-STAT antibodies (1:1000) overnight at 4° C. The blot was washed, exposed to HRP-conjugated secondary antibodies for 1 h, and finally examined by chemiluminescence (ECL, Amersham Pharmacia Biotech. Arlington Heights, Ill.).

[4] = system: cyclin D1, cdc2, p21, p27, GADD45β, xIAP, Bfl-1/A1, Bcl-2, BclX1, cFLIP, survivin, c-myc, COX2; test: Western blot of cell cycle, anti-apoptotic, proliferative and metastatic gene products in U937 cells; format: cell-based, human; details: 10 μM
Protocol: Western blot analysis. Thirty to fifty micrograms of cytoplasmic, nuclear or whole cell protein was resolved on 10% SDS-PAGE gel, transferred to a nitrocellulose membrane, blocked with 5% non-fat milk, and probed with specific antibodies as per manufacturer's recommended protocol. The blots were washed, exposed to HRP-conjugated secondary antibodies for 1 h, and detected by ECL reagent (Amersham Pharmacia Biotechnology, Piscataway, N.J.). The bands were quantitated using a Personal Densitometer Scan v1.30 using Imagequant software version 3.3 (Molecular Dynamics).

[5] = system: bile salt export pump; details: Cui et al., 2003; cited from earlier work
[6] = target: T1, NF-κB proteins (Homo sapiens, UniProt P19838+Q04206); test: DNA binding of NF-κB in nuclear extracts incubated with guggulsterone (EMSA); format: biochemical; details: nuclear extracts from TNF-activated H1299 cells treated with guggulsterone 4 hours at room temperature
T1 construct: endogenous in cells; nuclear extract
Protocol: as §1, with “software. […]” for “software.”

[7] = system: U937 cells; test: Annexin V and TUNEL assays; format: cell-based, human
Protocol: Annexin V Assay. One of the early indicators of apoptosis is the rapid translocation and accumulation of the membrane phospholipid phosphatidylserine from the cell's cytoplasmic interface to the extracellular surface. This loss of membrane asymmetry can be detected using the binding properties of annexin V. To detect apoptosis, annexin V antibody conjugated with the fluorescent dye FITC was used. Briefly, 1×10^6 cells were pretreated with 10 μM guggulsterone for various time points and then subjected to annexin V staining. Cells were washed, stained with FITC-conjugated anti-annexin V antibody, and then analyzed with a flow cytometer (FACSCalibur; BD Biosciences). TUNEL Assay. Apoptosis was also assessed by the terminal deoxynucleotidyl transferase-mediated deoxyuridine triphosphate nick end-labeling (TUNEL) method, which examines DNA strand breaks that occur during apoptosis, using an in situ cell death detection reagent (Roche Molecular Biochemicals, Mannheim, Germany). Assays were performed using 5×10^5 cells that were incubated with 10 μM guggulsterone for 24 h and then fixed with 4% paraformaldehyde, and permeabilized with 0.1% Triton-X 100 in 0.1% sodium citrate. After being washed, the cells were incubated with reaction mixture for 60 min at 37° C. Stained cells were analyzed with a flow cytometer (FACSCalibur).

T1 sequence (Q04206 whole entry): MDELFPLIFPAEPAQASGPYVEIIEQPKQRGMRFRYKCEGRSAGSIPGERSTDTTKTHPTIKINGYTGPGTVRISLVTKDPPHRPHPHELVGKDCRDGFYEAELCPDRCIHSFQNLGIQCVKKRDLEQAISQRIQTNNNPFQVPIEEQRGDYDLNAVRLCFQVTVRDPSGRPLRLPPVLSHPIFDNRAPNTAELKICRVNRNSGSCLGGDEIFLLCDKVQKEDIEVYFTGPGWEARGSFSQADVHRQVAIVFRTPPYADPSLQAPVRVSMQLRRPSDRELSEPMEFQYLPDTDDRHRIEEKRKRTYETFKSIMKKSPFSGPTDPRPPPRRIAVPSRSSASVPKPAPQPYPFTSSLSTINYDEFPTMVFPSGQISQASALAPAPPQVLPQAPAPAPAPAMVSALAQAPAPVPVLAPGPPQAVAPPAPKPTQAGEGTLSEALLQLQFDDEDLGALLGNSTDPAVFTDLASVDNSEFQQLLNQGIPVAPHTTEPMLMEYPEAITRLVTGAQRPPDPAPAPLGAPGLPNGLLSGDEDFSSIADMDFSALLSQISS
T1 sequence (P19838 1-433 limits assumed): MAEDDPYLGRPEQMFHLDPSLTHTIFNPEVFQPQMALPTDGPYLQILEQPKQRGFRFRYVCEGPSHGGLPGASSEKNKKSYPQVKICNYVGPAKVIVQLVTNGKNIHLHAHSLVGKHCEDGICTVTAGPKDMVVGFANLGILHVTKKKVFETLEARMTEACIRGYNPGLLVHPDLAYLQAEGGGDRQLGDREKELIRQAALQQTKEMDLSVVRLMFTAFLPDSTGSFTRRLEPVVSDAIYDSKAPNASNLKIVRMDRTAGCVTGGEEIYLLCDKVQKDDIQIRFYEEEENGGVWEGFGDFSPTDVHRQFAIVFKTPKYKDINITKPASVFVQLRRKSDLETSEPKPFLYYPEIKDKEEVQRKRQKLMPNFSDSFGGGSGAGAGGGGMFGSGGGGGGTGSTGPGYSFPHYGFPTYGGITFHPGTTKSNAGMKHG

CC=C1C(=O)C[C@H]2[C@@H]3CCC4=CC(=O)CC[C@]4(C)[C@H]3CC[C@]12C [guggulsterone, 4,17(20)-pregnadiene-3,16-dione]
TNF-induced apoptosis, calcein AM-based live/dead assay [1]: TNF-induced apoptosis was significantly enhanced | TNF-induced NF-κB activation in A549, Jurkat and KBM-5 cells [2]: completely inhibited this activation | exposure time sufficient to completely suppress IL-6-induced STAT3 phosphorylation ([3]; 25 μM): 4 h | IL-6-induced STAT3 phosphorylation ([3]; 25 μM, IL-6 10 ng/ml 10 min): blocked by guggulsterone in a time-dependent manner | STAT3 phosphorylation by guggulsterone alone ([3]; data not shown): had no effect on STAT3 phosphorylation | gene products involved in antiapoptosis (xIAP, Bfl-1/A1, Bcl-2, BclX1, cFLIP, survivin), proliferation (c-myc) and metastasis (COX2) [4]: inhibited the gene products involved in antiapoptosis | levels of cyclin D1 and cdc2 [4]: decrease in the levels of cyclin D1 and cdc2 | levels of p21, p27 and GADD45β [4]: increase in the levels of cyclin dependent kinase inhibitor p21, p27 | transcription of the bile salt export pump [5]: enhances transcription of the bile salt export pump | DNA-binding ability of NF-κB proteins [6]: did not modify the DNA-binding ability of NF-κB proteins | number of Annexin V and TUNEL positive cells [7]: increased the number of Annexin V and TUNEL positive cells
